Source: US7622462B2, “Benzazepine derivatives and uses thereof” (Roche Palo Alto LLC, priority 2006, dated 2009)
pKi: −log10 of the molar value.

How the values were obtained:
Format in all cases: binding
[1] = biological target: T1, hSERT transporter (Homo sapiens, UniProt P31645); assay: Human serotonin transporter (hSERT) scintillation proximity assay, competition with [3H]-Citalopram; settings: membranes of HEK-293 cells expressing recombinant hSERT, Cheng-Prusoff
T1 construct: expressed in transfected cells; membrane preparation
T1 sequence (P31645 whole entry): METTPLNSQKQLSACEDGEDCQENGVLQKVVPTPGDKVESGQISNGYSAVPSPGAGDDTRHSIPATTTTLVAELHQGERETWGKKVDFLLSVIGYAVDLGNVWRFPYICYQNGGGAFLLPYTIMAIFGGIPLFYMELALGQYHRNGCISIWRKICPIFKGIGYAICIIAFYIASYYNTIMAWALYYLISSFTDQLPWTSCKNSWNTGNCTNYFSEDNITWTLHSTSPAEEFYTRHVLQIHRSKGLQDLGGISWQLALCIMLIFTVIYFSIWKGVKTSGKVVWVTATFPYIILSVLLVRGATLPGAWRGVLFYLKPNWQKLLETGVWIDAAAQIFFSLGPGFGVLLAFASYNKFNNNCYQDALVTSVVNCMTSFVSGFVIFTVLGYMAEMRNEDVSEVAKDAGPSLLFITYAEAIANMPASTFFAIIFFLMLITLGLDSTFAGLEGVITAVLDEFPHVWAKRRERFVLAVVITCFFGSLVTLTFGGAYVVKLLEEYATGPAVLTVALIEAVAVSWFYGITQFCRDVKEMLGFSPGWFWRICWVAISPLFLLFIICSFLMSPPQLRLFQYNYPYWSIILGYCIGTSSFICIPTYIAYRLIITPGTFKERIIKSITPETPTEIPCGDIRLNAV
Experimental: The screening assay of this example was used to determine the affinity of ligands at the hSERT transporter by competition with [^3H]-Citalopram.
Scintillation Proximity Assay (SPA) works by bringing radioligand within close proximity to the bead's scintillant to stimulate light emission. In this assay, the receptor-containing membranes were pre-coupled to the SPA beads and the binding of the appropriate radioligand to the transporter was measured. The light emission was proportional to the amount of bound radioligand. Unbound radioligand produced no signal as a result of distant proximity to scintillant (lack of energy transfer). […]
(§1) Cell membranes were prepared using a membrane preparation buffer of 50 mM TRIS (pH 7.4). […] After a second centrifugation, the pellet was re-homogenized and brought to a final volume determined during the assay. […]
The % inhibition was calculated for each compound tested [(Compound counts per minute (CPM) at maximum concentration-Non-Specific CPM)/Total CPM*100]. […]
(§2) [formula] where max=total binding, min=non specific binding, x=concentration (M) of the tested compound and n=Hill slope. The inhibition dissociation constant (Ki) of each compound was determined according to the method of Cheng-Prusoff and then converted into negative logarithm (pKi) of the Ki.

[2] = biological target: T2, human dopamine transporter (hDAT) (Homo sapiens, UniProt Q01959); assay: Human dopamine transporter scintillation proximity assay, competition with [3H]-Vanoxerine; settings: HEK-293 cells expressing recombinant hDAT; [3H]-Vanoxerine (GBR 12909); Cheng-Prusoff
T2 construct: expressed in transfected cells; whole cells plated on Cell-Tak coated 96 well plates
T2 sequence (Q01959 whole entry): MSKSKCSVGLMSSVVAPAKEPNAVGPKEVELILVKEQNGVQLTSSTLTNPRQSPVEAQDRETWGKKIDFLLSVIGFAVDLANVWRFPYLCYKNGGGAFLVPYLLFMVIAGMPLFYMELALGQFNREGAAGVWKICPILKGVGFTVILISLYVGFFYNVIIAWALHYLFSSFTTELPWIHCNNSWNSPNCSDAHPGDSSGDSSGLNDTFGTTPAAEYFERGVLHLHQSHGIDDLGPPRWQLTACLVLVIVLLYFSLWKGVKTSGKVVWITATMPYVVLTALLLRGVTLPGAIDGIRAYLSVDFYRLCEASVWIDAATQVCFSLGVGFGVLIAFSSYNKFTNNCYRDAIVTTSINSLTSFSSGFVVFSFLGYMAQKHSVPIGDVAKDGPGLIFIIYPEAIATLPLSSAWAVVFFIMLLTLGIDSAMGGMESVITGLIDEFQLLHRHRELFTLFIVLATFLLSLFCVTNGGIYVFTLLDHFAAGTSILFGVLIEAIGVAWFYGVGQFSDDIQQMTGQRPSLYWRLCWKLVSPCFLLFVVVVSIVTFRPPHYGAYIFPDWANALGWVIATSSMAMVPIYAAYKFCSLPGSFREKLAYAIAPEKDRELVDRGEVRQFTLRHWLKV
Experimental: This assay was used to determine the affinity of ligands for the dopamine transporter by competition with [^3H]-Vanoxerine.
HEK-293 cells (Tatsumi et al., Eur. J. Pharmacol. 1997, 30, 249-258) stably expressing recombinant hDAT were maintained with media (DMEM hi glucose with 10% FBS, 300 μg/ml G418 and 2 mM L-Glutamine) and incubated at 37° C. with 5% CO2. Cells were plated four hours prior to experiment by placing approximately 30,000 cells per well (in PBS) on white, opaque Cell-Tak coated 96 well plates. Extra buffer was apriated from the cell plates using an ELx405 plate washer.
^3[H] vanoxerine (GBR 12909) radioligand, specific activity approximately 59 Ci/mmol, stock concentration, 400 nM, and 50 mM Tris-HCl, 300 mM NaCl, (pH 7.4) buffers were used for Scintillation Proximity Assay IC50/Ki determination. […]
The % inhibition was calculated for each compound tested [(Compound CPM at maximum concentration-Non-Specific CPM)/Total CPM*100]. […]
as §2

[3] = biological target: T3, hNET transporter (Homo sapiens, UniProt P23975); assay: Human norepinephrine transporter (hNET) scintillation proximity assay, competition with [3H]-Nisoxetine; settings: membranes of HEK-293 cells expressing recombinant hNET, Cheng-Prusoff
T3 construct: expressed in transfected cells; membrane preparation
T3 sequence (P23975 whole entry): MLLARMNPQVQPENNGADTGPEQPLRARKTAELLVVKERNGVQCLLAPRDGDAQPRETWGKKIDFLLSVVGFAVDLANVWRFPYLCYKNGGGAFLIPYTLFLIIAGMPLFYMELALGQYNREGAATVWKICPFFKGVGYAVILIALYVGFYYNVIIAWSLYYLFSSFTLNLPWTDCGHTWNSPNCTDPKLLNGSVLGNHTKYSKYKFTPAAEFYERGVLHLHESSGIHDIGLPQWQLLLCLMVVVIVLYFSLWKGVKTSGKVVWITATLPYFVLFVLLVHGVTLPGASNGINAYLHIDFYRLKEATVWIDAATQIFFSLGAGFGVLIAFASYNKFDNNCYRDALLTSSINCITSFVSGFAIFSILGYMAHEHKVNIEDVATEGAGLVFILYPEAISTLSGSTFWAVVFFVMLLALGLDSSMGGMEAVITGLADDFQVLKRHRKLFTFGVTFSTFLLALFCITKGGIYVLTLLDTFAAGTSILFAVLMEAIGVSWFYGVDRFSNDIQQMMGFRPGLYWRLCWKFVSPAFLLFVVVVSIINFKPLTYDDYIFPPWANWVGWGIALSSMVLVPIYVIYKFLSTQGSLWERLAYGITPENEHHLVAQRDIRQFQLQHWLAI
Experimental: This assay was used to determine the affinity of ligands for the hNET transporter by competition with [^3H]-Nisoxetine. As in the hSERT assay of the above example, receptor-containing membranes were pre-coupled to the SPA beads and the binding of the appropriate radioligand to the transporter was measured. The light emission was proportional to the amount of bound radioligand, with unbound radioligand producing no signal.
HEK-293 cells (Tatsumi et al., Eur. J. Pharmacol. 1997, 30, 249-258) stably expressing recombinant hNET (Clone: HEK-hNET #2) were maintained with media (DMEM hi glucose with 10% FBS, 300 μg/ml G418 and 2 mM L-Glutamine) and incubated at 37° C. with 5% CO2. Cells were released from culture flasks using PBS for 1-2 minutes. […]
as §1
^3[H] […] The mixtures were allowed to stand at room temperature for one hour, and were then counted on a Packard TopCount LCS, a generic SPA counting protocol settings (Energy Range: Low, Efficiency Mode: Normal, Region A: 1.50-35.00, Region B: 1.50-256.00, Count Time (min.): 0.40, Background Subtract: none, Half-Life Correction: no, Quench Indicator: tSIS, Platemap blank subtraction: No, Cross talk reduction: Off). […]

pKi [1]: ~6.90 | pKi [2]: ~8.70 | pKi [3]: ~8.00
SMILES: c1ccc2c(c1)CNCCC2c1ccc2[nH]ccc2c1 (stereo not drawn) [5-(1H-Indol-5-yl)-2,3,4,5-tetrahydro-1H-benzo[c]azepine]
